Measured values from publication PMC11808397, “Development of selective nanomolar cyclic peptide ligands as GBA1 enzyme stabilisers” (RSC Chemical Biology, 2025).

Tests used:
[1] = tested on: rhGBA1 (Cerezyme) in plasma; assay: Stabilisation of rhGBA1 in plasma, 4-MU activity; type: biochemical, human; conditions: rhGBA1 10 nM in plasma, peptides 0.001-10 μM or Ambroxol 100-1000 μM, 0-120 minutes, 0.5% DMSO
Method: We then investigated whether peptides L4, D8, and D12 could stabilise rhGBA1 in plasma. […] The solutions were then incubated with 4-MU-β-D-Glu for an additional 30 minutes, and the remaining rhGBA1 activity was determined.
Specifically, high concentrations of all peptides (10–1 μM) led to enzyme binding but also GBA1 inhibition after short incubations (0 to 30 minutes). […] To discard potential degradation of D8 and D12 during plasma experiments, the peptides were incubated in plasma at 0.1 μM for 2 hours, followed by the addition of rhGBA1 to measure its activity. This was compared to controls where D8 and D12 were added to plasma and directly tested for GBA1 activity.
Fig. 3 Stabilisation of rhGBA1 (10 nM) in plasma by cyclic peptides D8 and D12. […] Control contained 0.5% DMSO. Error ranges depict standard deviations from n = 3 replicates, measured in technical duplicates. *p < 0.05, **p < 0.01, ***p < 0.001.
Selective Cyclic Peptide Ligands as GBA1 Stabilizers Katzy et al. curves were determined in triplicate using the Tycho NT.6 (NanoTemper), according to manufacturer […]
2.9. Cerezyme Stabilization studies in plasma […]
Specific GBA1 activity was determined as described above, with 25 µL of sample incubated for 30 min with 3.7 mM 4MU-β-Glc substrate.

[2] = molecular target: T1, recombinant human GBA1 (rhGBA1, Cerezyme) (Homo sapiens, UniProt P04062, R534H); assay: Thermostability of rhGBA1, label-free differential scanning fluorimetry (Tycho NT.6); type: binding; conditions: rhGBA1 at 1 μM, 20 mM HEPES pH 7.0, 100 mM NaCl, 0.5% DMSO, 2 h room temperature; N. D. = not determined due to a lack of stabilisation effect
T1 construct: purchased Cerezyme
T1 sequence (P04062 40-536 R534H): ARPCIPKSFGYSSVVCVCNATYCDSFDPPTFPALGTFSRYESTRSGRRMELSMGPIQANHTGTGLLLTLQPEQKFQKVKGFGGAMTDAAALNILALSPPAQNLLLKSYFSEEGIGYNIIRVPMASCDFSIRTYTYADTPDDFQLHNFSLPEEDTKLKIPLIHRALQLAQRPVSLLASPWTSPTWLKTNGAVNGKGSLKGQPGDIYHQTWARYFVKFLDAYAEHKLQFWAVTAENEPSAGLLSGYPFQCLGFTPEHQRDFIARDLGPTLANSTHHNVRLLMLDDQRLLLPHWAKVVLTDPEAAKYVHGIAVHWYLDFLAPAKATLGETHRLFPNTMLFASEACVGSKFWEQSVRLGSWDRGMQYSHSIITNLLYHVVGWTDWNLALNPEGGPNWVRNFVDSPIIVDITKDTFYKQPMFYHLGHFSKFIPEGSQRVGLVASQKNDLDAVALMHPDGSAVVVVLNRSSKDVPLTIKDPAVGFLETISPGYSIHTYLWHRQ
Method: Samples were incubated at room temperature for 2
hours before measurement in the Tycho NT6.
Thermostability assays in rhGBA (Cerezyme)
Varying concentrations of peptides were incubated with 1 µM rhGBA1 in 20 mM HEPES pH 7.0 with 100 mM NaCl, with a final DMSO concentration of 0.5 %, for 2 hours at room temperature. Melting

ΔTi,max [2]: 12.3 ± 5.4 °C
SMILES: Nc1c(Br)cc(Br)cc1CN[C@H]1CC[C@H](O)CC1 [Ambroxol, reference compound]
stabilisation of rhGBA1 against degradation in plasma [1]: no stabilisation effect
